Values joined by “and” are separate entries in the source; they are usually repeats but may differ in a detail not shown here. Equal entries are not always repeated. Where two headings read alike, the source gives them in different places.
Experiments:
[1] = Pharmacokinetic analysis of Nec-1f in mice (tissue PK); type: in vivo, C57BL/6 mice; details: individual mice; for concentration at 1440 min / concentration at 0 min / concentration at 5 min / concentration at 15 min / concentration at 120 min / concentration at 240 min / concentration at 360 min / concentration at 480 min / concentration at 60 min: male, C57BL/6, mouse, intraperitoneal; for concentration at 5 min: sample collection 5 min; for concentration at 15 min: sample collection 15 min; for concentration at 120 min: sample collection 120 min; for concentration at 60 min: sample collection 60 min
[2] = target: β2(h) (Homo sapiens, UniProt P07550); experiment: Off-target radioligand binding screen; details: read-out: β2(h) ($): inhibition of radioligand binding
[3] = target: CB2(h) (Homo sapiens, UniProt P34972); experiment: Off-target radioligand binding screen; details: read-out: CB2(h) (#): inhibition of radioligand binding
[4] = test system: NMDA; experiment: Off-target radioligand binding screen; details: Nec-1f 10 µM
[5] = target: M1(h) (Homo sapiens, UniProt P11229); experiment: Off-target radioligand binding screen; details: read-out: M1(h) ($): inhibition of radioligand binding
[6] = target: δ (DOP) (h) (Homo sapiens, UniProt P41143); experiment: Off-target radioligand binding screen; details: read-out: δ (DOP) (h) (#): inhibition of radioligand binding
[7] = target: μ (MOP) (h) (Homo sapiens, UniProt P35372); experiment: Off-target radioligand binding screen; details: read-out: μ (MOP) (h) (#): inhibition of radioligand binding
[8] = target: 5-HT3(h) (Homo sapiens, UniProt P46098); experiment: Off-target radioligand binding screen; details: read-out: 5-HT3(h) ($): inhibition of radioligand binding
[9] = test system: AR(h); experiment: Off-target radioligand binding screen; details: Nec-1f 10 µM
[10] = test system: Ca2+ channel (L, dihydropyridine site); experiment: Off-target radioligand binding screen; details: Nec-1f 10 µM
[11] = target: indoleamine 2,3-dioxygenase (IDO) (Homo sapiens, UniProt P14902); experiment: IDO assay (formation of N-formyl-kynurenine from L-tryptophan); details: read-out: IDO (h): inhibition
[12] = liver, liver, read-out: concentration in liver
[13] = lung, lung, read-out: concentration in lung
[14] = pancreas, pancreas, read-out: concentration in pancreas
[15] = plasma, 2 mg/ml, plasma, read-out: concentration in plasma
[16] = whole blood, 2 mg/ml, blood, read-out: concentration in blood

μ (MOP) (h), sequence (P35372 whole entry): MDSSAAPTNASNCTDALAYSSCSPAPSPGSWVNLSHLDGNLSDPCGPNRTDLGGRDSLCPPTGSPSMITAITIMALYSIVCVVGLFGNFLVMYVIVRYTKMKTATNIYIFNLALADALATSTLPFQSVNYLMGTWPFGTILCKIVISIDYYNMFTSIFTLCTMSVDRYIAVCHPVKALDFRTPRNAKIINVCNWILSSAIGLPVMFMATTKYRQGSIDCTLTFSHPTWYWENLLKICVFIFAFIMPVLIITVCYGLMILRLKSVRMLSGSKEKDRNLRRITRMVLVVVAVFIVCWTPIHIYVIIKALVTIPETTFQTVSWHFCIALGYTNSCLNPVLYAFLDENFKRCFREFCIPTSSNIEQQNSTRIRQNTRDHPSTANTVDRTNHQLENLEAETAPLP
β2(h), sequence (P07550 whole entry): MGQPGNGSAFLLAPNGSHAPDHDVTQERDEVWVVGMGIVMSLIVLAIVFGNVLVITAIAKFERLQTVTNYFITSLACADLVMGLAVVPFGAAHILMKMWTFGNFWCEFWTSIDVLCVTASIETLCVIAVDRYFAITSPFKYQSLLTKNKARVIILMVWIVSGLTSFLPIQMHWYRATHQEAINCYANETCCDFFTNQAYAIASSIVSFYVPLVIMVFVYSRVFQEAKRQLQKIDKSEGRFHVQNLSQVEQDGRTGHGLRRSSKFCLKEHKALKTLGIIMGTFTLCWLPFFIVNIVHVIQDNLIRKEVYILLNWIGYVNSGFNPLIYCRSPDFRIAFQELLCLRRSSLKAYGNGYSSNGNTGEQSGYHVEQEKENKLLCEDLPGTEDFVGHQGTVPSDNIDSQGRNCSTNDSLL
5-HT3(h), sequence (P46098 24-478): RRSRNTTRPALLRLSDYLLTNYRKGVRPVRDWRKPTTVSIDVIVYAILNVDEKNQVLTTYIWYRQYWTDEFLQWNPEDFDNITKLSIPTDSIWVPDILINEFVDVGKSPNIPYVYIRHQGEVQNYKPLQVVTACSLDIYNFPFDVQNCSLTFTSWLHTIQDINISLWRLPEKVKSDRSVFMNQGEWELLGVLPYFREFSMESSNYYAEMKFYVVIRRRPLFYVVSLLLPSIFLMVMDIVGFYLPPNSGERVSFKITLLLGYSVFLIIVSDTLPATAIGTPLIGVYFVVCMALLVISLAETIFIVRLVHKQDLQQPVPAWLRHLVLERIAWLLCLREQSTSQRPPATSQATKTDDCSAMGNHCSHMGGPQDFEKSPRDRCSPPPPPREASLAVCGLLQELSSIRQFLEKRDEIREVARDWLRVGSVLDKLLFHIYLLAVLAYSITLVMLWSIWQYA
indoleamine 2,3-dioxygenase (IDO), sequence (P14902 whole entry): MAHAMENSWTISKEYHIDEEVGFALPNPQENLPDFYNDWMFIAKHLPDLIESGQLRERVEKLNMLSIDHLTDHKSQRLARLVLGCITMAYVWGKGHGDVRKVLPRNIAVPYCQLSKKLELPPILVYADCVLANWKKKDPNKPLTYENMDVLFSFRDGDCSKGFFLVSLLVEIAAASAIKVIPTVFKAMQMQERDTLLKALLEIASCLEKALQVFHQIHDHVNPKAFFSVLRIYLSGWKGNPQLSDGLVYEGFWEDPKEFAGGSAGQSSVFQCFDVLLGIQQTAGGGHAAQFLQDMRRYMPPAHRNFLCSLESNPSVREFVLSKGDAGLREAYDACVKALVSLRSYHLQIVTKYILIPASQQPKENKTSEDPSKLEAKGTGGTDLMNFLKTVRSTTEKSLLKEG
CB2(h), sequence (P34972 whole entry): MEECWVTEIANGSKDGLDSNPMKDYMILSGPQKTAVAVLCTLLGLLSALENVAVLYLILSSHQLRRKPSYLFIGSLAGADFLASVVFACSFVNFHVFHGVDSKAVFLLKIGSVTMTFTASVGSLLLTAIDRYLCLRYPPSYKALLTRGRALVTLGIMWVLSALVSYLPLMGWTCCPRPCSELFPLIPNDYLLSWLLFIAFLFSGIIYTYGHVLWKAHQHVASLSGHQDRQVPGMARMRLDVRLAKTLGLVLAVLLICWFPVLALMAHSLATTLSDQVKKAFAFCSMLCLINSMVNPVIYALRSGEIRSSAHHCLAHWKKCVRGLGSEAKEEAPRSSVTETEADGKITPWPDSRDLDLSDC
δ (DOP) (h), sequence (P41143 whole entry): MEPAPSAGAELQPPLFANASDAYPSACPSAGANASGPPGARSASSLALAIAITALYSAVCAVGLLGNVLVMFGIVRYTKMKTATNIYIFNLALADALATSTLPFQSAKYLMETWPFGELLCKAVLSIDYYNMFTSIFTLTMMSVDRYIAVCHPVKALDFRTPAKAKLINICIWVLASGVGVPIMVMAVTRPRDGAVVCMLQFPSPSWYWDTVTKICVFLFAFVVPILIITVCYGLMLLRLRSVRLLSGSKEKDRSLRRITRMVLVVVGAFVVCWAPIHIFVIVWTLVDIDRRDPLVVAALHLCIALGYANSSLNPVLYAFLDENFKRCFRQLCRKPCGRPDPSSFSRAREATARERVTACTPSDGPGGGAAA
M1(h), sequence (P11229 whole entry): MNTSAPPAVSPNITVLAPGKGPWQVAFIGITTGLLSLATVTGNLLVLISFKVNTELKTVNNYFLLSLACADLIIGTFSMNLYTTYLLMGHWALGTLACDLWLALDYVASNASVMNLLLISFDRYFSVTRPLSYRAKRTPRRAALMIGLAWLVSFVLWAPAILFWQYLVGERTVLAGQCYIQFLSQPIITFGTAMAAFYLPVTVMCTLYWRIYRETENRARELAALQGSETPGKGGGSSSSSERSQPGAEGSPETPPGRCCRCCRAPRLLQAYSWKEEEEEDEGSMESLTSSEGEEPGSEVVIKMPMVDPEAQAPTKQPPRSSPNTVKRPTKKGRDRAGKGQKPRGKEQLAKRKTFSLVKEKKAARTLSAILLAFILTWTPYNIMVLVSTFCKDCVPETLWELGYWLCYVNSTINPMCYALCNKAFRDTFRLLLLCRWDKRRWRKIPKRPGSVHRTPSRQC

CN1C(=O)C(Cc2c[nH]c3c(Cl)cccc23)NC1=S (centres unmarked) [Nec-1f]
concentration at 1440 min ([1]; liver, 2 mg/kg, liver, sample collection 1440 min, read-out: concentration in liver): 0 ng/mL
concentration at 0 min ([1]; liver, liver, sample collection 0 min, read-out: concentration in liver): 0 ng/mL
concentration at 5 min [1, 12]: 202 ng/mL
concentration at 15 min [1, 12]: 334 ng/mL
concentration at 120 min [1, 12]: 0 ng/mL
concentration at 240 min ([1]; lung, 2 mg/kg, lung, sample collection 240 min, read-out: concentration in lung): 0 ng/mL
concentration at 360 min ([1]; lung, 2 mg/kg, lung, sample collection 360 min, read-out: concentration in lung): 0 ng/mL
concentration at 480 min ([1]; lung, 2 mg/kg, lung, sample collection 480 min, read-out: concentration in lung): 0 ng/mL
concentration at 0 min ([1]; lung, lung, sample collection 0 min, read-out: concentration in lung): 0 ng/mL
concentration at 5 min [1, 13]: 573 ng/mL
concentration at 60 min [1, 13]: 321 ng/mL
concentration at 120 min [1, 13]: 50 ng/mL
concentration at 1440 min ([1]; lung, lung, sample collection 1440 min, read-out: concentration in lung): 0 ng/mL
concentration at 0 min ([1]; pancreas, pancreas, sample collection 0 min, read-out: concentration in pancreas): 0 ng/mL
concentration at 5 min [1, 14]: 8950 ng/mL
concentration at 15 min [1, 14]: 35200 ng/mL
concentration at 120 min [1, 14]: 490 ng/mL
concentration at 1440 min ([1]; pancreas, pancreas, sample collection 1440 min, read-out: concentration in pancreas): 0 ng/mL
concentration at 240 min ([1]; plasma, 2 mg/kg, plasma, sample collection 240 min, read-out: concentration in plasma): 0 ng/mL
concentration at 360 min ([1]; plasma, 2 mg/kg, plasma, sample collection 360 min, read-out: concentration in plasma): 0 ng/mL
concentration at 480 min ([1]; plasma, 2 mg/kg, plasma, sample collection 480 min, read-out: concentration in plasma): 0 ng/mL
concentration at 1440 min ([1]; plasma, 2 mg/kg, plasma, sample collection 1440 min, read-out: concentration in plasma): 0 ng/mL
concentration at 0 min ([1]; plasma, 2 mg/ml, plasma, sample collection 0 min, read-out: concentration in plasma): 0 ng/mL
concentration at 5 min [1, 15]: 0 ng/mL
concentration at 60 min [1, 15]: 19 ng/mL
concentration at 120 min [1, 15]: 0 ng/mL
concentration at 240 min ([1]; whole blood, 2 mg/kg, blood, sample collection 240 min, read-out: concentration in blood): 0 ng/mL
concentration at 360 min ([1]; whole blood, 2 mg/kg, blood, sample collection 360 min, read-out: concentration in blood): 0 ng/mL
concentration at 480 min ([1]; whole blood, 2 mg/kg, blood, sample collection 480 min, read-out: concentration in blood): 0 ng/mL
concentration at 0 min ([1]; whole blood, 2 mg/ml, blood, sample collection 0 min, read-out: concentration in blood): 0 ng/mL
concentration at 5 min [1, 16]: 0 ng/mL
concentration at 60 min [1, 16]: 0 ng/mL
concentration at 120 min [1, 16]: 0 ng/mL
concentration at 1440 min ([1]; whole blood, 2 mg/ml, blood, sample collection 1440 min, read-out: concentration in blood): 0 ng/mL
concentration in pancreas ([1]; pancreas, sample collection 240 min): 476 ng/mL and 7372 ng/mL and 2018 ng/mL
concentration in pancreas ([1]; pancreas, sample collection 360 min): 0 ng/mL and 1720 ng/mL and 911 ng/mL
concentration in pancreas ([1]; pancreas, sample collection 480 min): 0 ng/mL and 176 ng/mL and 625 ng/mL
concentration in pancreas ([1]; pancreas, sample collection 1440 min): 0 ng/mL
concentration in plasma ([1]; plasma, sample collection 0 min): 0 ng/mL
concentration in plasma ([1]; plasma, sample collection 240 min): 0 ng/mL
concentration in plasma ([1]; plasma, sample collection 360 min): 0 ng/mL
concentration in plasma ([1]; plasma, sample collection 480 min): 0 ng/mL
concentration in plasma ([1]; plasma, sample collection 1440 min): 0 ng/mL
inhibition at 10 µM [2]: 1.4%
inhibition at 10 µM [3]: -12.8%
NMDA ($): inhibition of radioligand binding [4]: 1.4%
inhibition at 10 µM [5]: -7.3%
inhibition at 10 µM [6]: 2.8%
inhibition at 10 µM [7]: 15.8%
inhibition at 10 µM [8]: 10.4%
AR(h) (#): inhibition of radioligand binding [9]: 12.2%
Ca2+ channel (L, dihydropyridine site) ($): inhibition of radioligand binding [10]: 40%
inhibition at 10 µM [11]: 2%

— PMC8292346, “Dysfunction of the key ferroptosis-surveilling systems hypersensitizes mice to tubular necrosis during acute kidney injury” (Nature Communications, 2021)
